One series can be described thus: in vivo. The settings on record: mouse, po. The text has this:
Method of studying LD50 in the mouse after a single oral administration.
Thereafter, the animals are fed again (Morini MIL fodder for mice).

The subject of series [1] is bronchial secretion (mucoproduction). Put plainly: Bronchosecretagogue activity (mucoproduction) in the rabbit. The settings on record: oral, relative activity, d,l-trans-sobrerol taken equal to 100. Format: in vivo, rabbit (male brown). Here is the method: Method of mucoproduction in the rabbit according to Scuri R. et al Boll. Chem. Farm.
Male brown rabbits weighing 2.8-3.5 kg are used. To said animals, by a surgical operation under anaesthesia, a T shaped tracheal cannula is applied, as described in the above bibliographic reference.
To the cannula, a container (a polypropylene 2 ml test tube) is applied for periodical collection of the bronchial secretion. The study of mucoproduction, started at the fourth day after the operation, is divided into two 4 hour periods for collecting and measuring the mucus, and precisely from 8:30 to 12:30 (I), and from 12:30 to 16:30 (II).
The activity of each drug is tested by administering the same by oesophageal way (os) at the beginning of the II period and by evaluating the percent increase of mucoproduction (weight of the mucus as collected) in the II period as compared with the I period.

Series [2] concerns bronchial mucus of bronchitic rabbits. Put plainly: Fluidizing "in vivo" activity: viscosity of bronchial mucus of bronchitic rabbits. More on the design: species or system rabbit (male, bronchitic by sulphuric acid aerosol). As to conditions: for Fluidizing "in vivo" activity of bronchial mucus: bronchitic rabbits, oral, relative activity, d,l-trans-sobrerol taken equal to 100. The protocol: The viscosity of the mucus as withdrawn is studied by using a Contraves RM16 microviscosimeter and it is recorded by a Rheomat 15 T-FC apparatus.

Series [3] deals with rectal temperature, dry yeast-induced fever. Put plainly: Antipyretic activity in the rat (dry yeast fever). Format: in vivo, rat (albino Wistar female). The settings on record: for Antipyretic activity: rat, oral, temperature index over 4-25 h, relative activity, p-aminophenol taken equal to 100. Here is the method: Method for studying the antipyretic activity in the rat.
Albino Wistar female rats, weighing 100-140g, are utilized. The animals having a rectal, basal temperature from 36° to 37° C. are selected.
The test substances are administered by oral way contemporaneously with the pyretic agent (dry yeast, suspended in water at the 20% concentration; volume administered 15 ml/kg subcutaneously) at groups of 5 animals per dose.
After 4,5,6,7 and 25 hours from the treatment, the rectal temperature of the animals is measured by an Ellab RM6 probe, connected to an Ellab mod. TE-3 thermometer.
The activity of the drugs is evaluated by utilizing a temperature index which is provided by the algebraic sum of the differences in the rectal temperature between the measure values at the various times and the basal value.

Series [4] is described as follows: Pharmacokinetics: plasma levels in the rat after oral administration (HPLC). The settings on record: Wistar rats, fasted, 400 mg/kg oral single administration, 0.5-6 h. Type of series: in vivo. The protocol:
For this study, two groups of Wistar rats (170 280 g), fasting about 15 hours before treatment, are utilized. The animals were allowed to drink an aqueous 10% glucose solution. To the rats, the compound of formula I, by oral way (transoesophageal intubation) is administered at the dose of 400 mg/kg (a single administration) and at 0.5 h; 1 h; 1.5 h; 2 h; 3 h; 4 h; 6 h from administration, 5 rats/time are sacrificed. The blood, as collected into test tubes containing sodium heparin, is centrifuged and the plasma so obtained is utilized for quantitative analysis of the compound of formula (I) of the invention by means of high pressure liquid chromatography (HPLC) with an U.V. detector.

Structures are written as SMILES.

In the series “in vivo”, `CC1=CC[C@H](C(C)(C)O)C[C@H]1OC(=O)CCC(=O)Nc1ccc(O)cc1` (relative stereo) [CO/1499, 5-[3-N-[(4-hydroxyphenyl)carboxamido]-1-oxo-propxy]-α,α-4-trimethyl-3-cyclohexene-1-methanol] showed an LD50 at 336 h of 2070 mg/kg. In series [1], this compound registered a Bronchosecretagogue activity of 131. The “Fluidizing "in vivo" activity of bronchial mucus” value (“Fluidizing "in vivo" activity” for short) in series [2] stood at 120. Besides, the mucosecretolytic-fluidizing activity result in series [2] (statement in words, versus activity ascribed to the d,l-trans-sobrerol moiety) was “potency increase”. In series [3], this compound showed an Antipyretic activity of 127. The “antipyretic activity compared with paracetamol or any drug of the same therapeutical class” value in series [3] (statement in words) is given as “equivalent of a dose of either paracetamol or any drug of the same therapeutical class”. Also, the “absorption (course of the plasmatic levels)” value in series [4] was “quick and good absorption”.
With `CC1=CC[C@H](C(C)(C)O)C[C@H]1O` (relative stereo) [d,l-trans-sobrerol], the LD50 at 336 h in the series “in vivo” stood at 2340 mg/kg. In series [1], this compound yielded a Bronchosecretagogue activity of 100. In addition, the “Fluidizing "in vivo" activity” value in series [2] is reported as 100. In addition, the Antipyretic activity in series [3] turned out to be 0.
Turning to `Nc1ccc(O)cc1` [p-aminophenol], the Bronchosecretagogue activity in series [1] is given as 0. For the same compound, the “Fluidizing "in vivo" activity” value in series [2] stood at 0. In addition, the Antipyretic activity in series [3] is recorded as 100.
